In ChEMBL document CHEMBL5696441 (Nat Chem Biol, 2011):

Experiments:
[1] = biological target: Vascular endothelial growth factor receptor 3 (Homo sapiens) (UniProt P35916); test: Inhibition of human VEGFR3 assessed as residual activity at 1 uM using polyEY as substrate in presence of 33P-ATP by ProQinase assay relative to control
[2] = biological target: PAS domain-containing serine/threonine-protein kinase (Homo sapiens) (UniProt Q96RG2); test: Inhibition of human PASK assessed as residual activity at 1 uM using RBER-CHKtide as substrate in presence of 33P-ATP by ProQinase assay relative to control
Sequence of PAS domain-containing serine/threonine-protein kinase (Homo sapiens) (Q96RG2 whole entry, the tested form may be a part): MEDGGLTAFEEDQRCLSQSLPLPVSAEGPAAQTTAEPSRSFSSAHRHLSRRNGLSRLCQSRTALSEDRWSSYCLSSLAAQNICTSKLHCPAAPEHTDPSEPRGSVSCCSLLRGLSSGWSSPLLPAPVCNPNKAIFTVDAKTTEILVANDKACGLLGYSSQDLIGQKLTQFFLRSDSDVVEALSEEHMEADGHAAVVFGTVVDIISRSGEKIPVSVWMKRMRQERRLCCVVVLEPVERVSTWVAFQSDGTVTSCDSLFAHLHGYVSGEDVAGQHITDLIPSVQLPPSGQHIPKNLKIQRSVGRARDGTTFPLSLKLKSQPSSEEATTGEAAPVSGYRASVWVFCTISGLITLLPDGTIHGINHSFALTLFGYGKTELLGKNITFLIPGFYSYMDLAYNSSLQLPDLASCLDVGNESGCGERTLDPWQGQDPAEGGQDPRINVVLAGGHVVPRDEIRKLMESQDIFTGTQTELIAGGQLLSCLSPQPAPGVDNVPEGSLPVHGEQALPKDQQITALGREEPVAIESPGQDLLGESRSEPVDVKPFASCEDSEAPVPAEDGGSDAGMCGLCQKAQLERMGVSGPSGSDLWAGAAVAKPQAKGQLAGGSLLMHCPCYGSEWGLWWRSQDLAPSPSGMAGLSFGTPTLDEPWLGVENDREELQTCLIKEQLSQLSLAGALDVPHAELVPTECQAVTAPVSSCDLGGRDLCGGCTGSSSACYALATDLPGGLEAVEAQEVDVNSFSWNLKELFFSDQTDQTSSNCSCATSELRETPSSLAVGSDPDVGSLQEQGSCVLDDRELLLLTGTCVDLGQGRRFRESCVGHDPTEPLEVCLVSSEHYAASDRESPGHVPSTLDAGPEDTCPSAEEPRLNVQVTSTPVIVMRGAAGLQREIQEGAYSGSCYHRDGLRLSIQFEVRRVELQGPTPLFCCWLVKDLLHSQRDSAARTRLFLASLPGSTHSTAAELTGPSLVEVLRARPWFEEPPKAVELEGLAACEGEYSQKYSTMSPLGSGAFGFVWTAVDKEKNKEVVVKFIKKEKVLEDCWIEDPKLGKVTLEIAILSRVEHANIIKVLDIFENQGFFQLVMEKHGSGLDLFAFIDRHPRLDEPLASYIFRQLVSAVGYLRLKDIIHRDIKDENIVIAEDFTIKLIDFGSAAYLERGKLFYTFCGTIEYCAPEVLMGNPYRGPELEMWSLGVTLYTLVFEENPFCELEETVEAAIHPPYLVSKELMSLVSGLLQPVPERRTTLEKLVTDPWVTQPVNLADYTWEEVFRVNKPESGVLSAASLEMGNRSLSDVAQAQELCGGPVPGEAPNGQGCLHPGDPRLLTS

[3] = biological target: Serine/threonine-protein kinase Nek9 (Homo sapiens) (UniProt Q8TD19); test: Inhibition of human NEK9 assessed as residual activity at 1 uM using RBER-GSK3 as substrate in presence of 33P-ATP by ProQinase assay relative to control
Sequence of Serine/threonine-protein kinase Nek9 (Homo sapiens) (Q8TD19 whole entry): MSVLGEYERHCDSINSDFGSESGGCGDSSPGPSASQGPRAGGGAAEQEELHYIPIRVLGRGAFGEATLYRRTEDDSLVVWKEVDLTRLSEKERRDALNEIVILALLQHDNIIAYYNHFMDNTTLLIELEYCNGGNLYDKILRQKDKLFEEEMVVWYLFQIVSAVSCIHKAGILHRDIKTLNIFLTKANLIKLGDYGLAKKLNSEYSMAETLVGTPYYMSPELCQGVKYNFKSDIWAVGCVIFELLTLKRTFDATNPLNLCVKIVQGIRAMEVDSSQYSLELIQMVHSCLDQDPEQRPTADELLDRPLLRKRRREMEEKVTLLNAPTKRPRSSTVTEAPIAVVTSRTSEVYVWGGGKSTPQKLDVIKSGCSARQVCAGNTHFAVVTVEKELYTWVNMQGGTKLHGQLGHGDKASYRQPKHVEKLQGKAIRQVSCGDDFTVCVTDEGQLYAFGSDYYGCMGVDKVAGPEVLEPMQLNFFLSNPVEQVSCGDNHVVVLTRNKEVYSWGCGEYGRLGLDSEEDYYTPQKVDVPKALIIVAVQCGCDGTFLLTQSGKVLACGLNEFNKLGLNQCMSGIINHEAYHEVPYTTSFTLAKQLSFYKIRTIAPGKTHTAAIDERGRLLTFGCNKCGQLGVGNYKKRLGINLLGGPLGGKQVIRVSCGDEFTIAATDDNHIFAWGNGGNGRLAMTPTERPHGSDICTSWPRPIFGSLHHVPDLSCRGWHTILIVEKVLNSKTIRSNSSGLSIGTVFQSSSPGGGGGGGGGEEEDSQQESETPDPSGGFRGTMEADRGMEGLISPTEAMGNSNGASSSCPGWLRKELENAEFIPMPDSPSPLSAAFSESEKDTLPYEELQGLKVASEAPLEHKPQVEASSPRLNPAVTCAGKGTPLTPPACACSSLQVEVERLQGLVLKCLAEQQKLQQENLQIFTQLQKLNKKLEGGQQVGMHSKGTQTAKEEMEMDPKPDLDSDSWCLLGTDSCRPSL

[4] = biological target: Phosphatidylinositol 4-phosphate 5-kinase type-1 alpha (Homo sapiens) (UniProt Q99755); test: Inhibition of PIP5K1A (unknown origin) assessed as remaining activity at 1 uM by Kinome scan method relative to control
Sequence of Phosphatidylinositol 4-phosphate 5-kinase type-1 alpha (Homo sapiens) (Q99755 whole entry): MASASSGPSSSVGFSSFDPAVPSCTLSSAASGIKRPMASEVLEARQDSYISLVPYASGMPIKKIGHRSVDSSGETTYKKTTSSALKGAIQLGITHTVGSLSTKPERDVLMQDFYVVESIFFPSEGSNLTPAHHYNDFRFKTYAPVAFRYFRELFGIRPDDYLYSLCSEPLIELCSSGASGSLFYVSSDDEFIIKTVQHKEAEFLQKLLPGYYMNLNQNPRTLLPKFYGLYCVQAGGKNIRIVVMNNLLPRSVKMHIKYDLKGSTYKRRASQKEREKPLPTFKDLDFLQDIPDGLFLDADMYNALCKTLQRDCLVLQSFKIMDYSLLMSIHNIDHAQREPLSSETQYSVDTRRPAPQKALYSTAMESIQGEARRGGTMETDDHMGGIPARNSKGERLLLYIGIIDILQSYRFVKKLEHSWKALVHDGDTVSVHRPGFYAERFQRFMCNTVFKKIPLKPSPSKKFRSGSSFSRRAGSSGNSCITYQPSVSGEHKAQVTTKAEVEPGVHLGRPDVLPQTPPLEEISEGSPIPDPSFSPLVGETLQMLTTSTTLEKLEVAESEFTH

[5] = tested on: Receptor-type tyrosine-protein kinase FLT3 (Homo sapiens), P36888 [UNDEFINED MUTATION]; test: Inhibition of human […] mutant assessed as residual activity at 1 uM using Poly(Ala,Glu,Lys,Tyr)6:2:5:1 as substrate in presence of 33P-ATP by ProQinase assay relative to control
[6] = biological target: Receptor-interacting serine/threonine-protein kinase 2 (Homo sapiens) (UniProt O43353); test: Inhibition of RIPK2 (unknown origin) assessed as remaining activity at 1 uM by Kinome scan method relative to control
[7] = biological target: Mitogen-activated protein kinase kinase kinase 8 (Homo sapiens) (UniProt P41279); test: Inhibition of human COT assessed as residual activity at 1 uM using RBER-CHKtide as substrate in presence of 33P-ATP by ProQinase assay relative to control
[8] = tested on: Epidermal growth factor receptor (Homo sapiens), P00533 [UNDEFINED MUTATION]; test: Inhibition of EGFR L747-S752del/P753S mutant (unknown origin) assessed as remaining activity at 1 uM by Kinome scan method relative to control
Sequence of Epidermal growth factor receptor (Homo sapiens), P00533 [UNDEFINED MUTATION] (P00533 whole entry, looked up, stated change not applied): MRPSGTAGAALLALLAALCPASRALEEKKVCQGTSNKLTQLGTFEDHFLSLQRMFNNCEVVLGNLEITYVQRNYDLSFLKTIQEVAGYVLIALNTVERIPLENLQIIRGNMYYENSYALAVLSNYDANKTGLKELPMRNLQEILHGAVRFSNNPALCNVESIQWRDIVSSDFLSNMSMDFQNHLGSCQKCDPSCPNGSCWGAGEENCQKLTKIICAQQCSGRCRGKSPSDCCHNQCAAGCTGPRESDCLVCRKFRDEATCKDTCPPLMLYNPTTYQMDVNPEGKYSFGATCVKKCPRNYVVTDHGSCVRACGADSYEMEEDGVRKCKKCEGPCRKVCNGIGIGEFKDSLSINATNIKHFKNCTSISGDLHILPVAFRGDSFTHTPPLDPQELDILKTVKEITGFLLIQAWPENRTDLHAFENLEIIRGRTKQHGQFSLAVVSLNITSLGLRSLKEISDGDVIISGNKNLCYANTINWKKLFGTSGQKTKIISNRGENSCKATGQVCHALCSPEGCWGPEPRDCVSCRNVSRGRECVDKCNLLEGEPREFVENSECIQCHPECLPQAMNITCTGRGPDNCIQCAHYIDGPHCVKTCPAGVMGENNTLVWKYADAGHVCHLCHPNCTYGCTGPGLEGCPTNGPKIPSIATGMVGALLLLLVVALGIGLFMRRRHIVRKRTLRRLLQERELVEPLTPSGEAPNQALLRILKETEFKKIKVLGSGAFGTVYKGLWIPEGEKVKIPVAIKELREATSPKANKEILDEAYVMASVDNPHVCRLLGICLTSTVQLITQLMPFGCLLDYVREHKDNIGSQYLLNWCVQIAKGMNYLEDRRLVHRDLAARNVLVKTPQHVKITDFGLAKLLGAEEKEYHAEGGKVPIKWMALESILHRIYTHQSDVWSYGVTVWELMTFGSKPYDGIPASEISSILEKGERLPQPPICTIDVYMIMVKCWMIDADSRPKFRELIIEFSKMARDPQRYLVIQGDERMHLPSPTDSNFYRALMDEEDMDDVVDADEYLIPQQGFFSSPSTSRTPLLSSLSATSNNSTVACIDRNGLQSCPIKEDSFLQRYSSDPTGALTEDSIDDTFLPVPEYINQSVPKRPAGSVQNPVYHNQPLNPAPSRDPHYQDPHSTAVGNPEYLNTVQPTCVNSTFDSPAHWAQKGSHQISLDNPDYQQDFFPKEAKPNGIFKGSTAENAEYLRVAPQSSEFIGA

[9] = biological target: T1, Aurora kinase A (Homo sapiens) (UniProt O14965); test: Inhibition of human AuroraA assessed as residual activity at 1 uM using bio-4xCHKT as substrate in presence of 33P-ATP by ProQinase assay relative to control
T1 sequence (whole entry): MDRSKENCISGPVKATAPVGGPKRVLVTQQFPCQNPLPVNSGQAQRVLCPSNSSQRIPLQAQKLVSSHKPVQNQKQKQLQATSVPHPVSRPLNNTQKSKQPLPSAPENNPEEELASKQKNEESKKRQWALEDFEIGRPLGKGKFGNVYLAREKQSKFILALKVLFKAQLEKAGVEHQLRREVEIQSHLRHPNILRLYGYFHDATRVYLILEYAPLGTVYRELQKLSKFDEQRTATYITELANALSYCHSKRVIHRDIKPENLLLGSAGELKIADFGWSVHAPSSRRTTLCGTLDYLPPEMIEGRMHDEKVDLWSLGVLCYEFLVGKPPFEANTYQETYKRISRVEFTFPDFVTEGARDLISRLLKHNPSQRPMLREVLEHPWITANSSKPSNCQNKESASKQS

[10] = tested on: eIF-2-alpha kinase GCN2 (Homo sapiens), Q9P2K8 [S808G]; test: Inhibition of GCN2 S808G mutant kinase domain 2 (unknown origin) assessed as remaining activity at 1 uM by Kinome scan method relative to control
[11] = biological target: Dual specificity tyrosine-phosphorylation-regulated kinase 1B (Homo sapiens) (UniProt Q9Y463); test: Inhibition of human DYRK1B assessed as residual activity at 1 uM using RBER-CHKtide as substrate in presence of 33P-ATP by ProQinase assay relative to control
[12] = biological target: Serine/threonine-protein kinase pim-2 (Homo sapiens) (UniProt Q9P1W9); test: Inhibition of human PIM2 assessed as residual activity at 1 uM using RBER-GSK3(14-27) as substrate in presence of 33P-ATP by ProQinase assay relative to control
Sequence of Serine/threonine-protein kinase pim-2 (Homo sapiens) (Q9P1W9 whole entry, looked up): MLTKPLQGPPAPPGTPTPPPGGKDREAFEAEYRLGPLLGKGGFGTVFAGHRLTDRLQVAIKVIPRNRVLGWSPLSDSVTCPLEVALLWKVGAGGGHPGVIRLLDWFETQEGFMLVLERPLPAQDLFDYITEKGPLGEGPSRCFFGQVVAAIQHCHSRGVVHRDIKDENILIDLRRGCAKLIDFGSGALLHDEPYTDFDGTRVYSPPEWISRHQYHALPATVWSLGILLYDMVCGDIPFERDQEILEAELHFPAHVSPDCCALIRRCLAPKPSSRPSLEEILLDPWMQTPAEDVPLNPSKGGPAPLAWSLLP

[13] = tested on: Receptor-type tyrosine-protein kinase FLT3 (Homo sapiens), P36888 [N841I]; test: Inhibition of FLT3 N841I mutant (unknown origin) assessed as remaining activity at 1 uM by Kinome scan method relative to control
[14] = biological target: Serine/threonine-protein kinase 33 (Homo sapiens) (UniProt Q9BYT3); test: Inhibition of human STK33 assessed as residual activity at 1 uM using RBER-CHKtide as substrate in presence of 33P-ATP by ProQinase assay relative to control
[15] = biological target: T2, Mitogen-activated protein kinase kinase kinase kinase 2 (Homo sapiens) (UniProt Q12851); test: Inhibition of human MAP4K2 assessed as residual activity at 1 uM using 3xChocktide-PKC as substrate in presence of 33P-ATP by ProQinase assay relative to control
T2 sequence (whole entry): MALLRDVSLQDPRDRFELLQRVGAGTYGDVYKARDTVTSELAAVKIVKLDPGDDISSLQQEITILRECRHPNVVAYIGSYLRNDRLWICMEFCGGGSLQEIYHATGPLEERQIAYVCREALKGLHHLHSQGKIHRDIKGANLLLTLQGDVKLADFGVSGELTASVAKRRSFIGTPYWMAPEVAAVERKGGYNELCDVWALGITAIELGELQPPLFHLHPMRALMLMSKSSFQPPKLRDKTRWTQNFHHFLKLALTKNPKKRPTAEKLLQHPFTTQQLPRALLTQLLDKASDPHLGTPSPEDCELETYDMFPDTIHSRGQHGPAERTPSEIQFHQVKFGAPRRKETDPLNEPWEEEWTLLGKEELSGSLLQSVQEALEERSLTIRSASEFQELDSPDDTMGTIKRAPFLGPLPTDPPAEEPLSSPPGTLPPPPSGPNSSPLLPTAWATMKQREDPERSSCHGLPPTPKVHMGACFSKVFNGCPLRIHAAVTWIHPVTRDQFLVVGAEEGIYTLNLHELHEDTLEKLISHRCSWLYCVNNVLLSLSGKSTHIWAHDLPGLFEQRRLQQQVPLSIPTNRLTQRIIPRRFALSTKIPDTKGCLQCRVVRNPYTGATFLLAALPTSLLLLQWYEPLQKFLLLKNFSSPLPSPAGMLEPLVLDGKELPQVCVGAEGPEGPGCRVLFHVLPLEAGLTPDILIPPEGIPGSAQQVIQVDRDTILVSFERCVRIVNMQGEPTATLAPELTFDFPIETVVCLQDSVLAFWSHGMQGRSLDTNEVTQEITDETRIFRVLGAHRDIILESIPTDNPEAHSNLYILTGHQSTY

[16] = biological target: Serine/threonine-protein kinase 38-like (Homo sapiens) (UniProt Q9Y2H1); test: Inhibition of NDR2 (unknown origin) assessed as remaining activity at 1 uM by Kinome scan method relative to control
[17] = biological target: Cytoplasmic tyrosine-protein kinase BMX (Homo sapiens) (UniProt P51813); test: Inhibition of human BMX assessed as residual activity at 1 uM using polyEy as substrate in presence of 33P-ATP by ProQinase assay relative to control
Sequence of Cytoplasmic tyrosine-protein kinase BMX (Homo sapiens) (P51813 whole entry): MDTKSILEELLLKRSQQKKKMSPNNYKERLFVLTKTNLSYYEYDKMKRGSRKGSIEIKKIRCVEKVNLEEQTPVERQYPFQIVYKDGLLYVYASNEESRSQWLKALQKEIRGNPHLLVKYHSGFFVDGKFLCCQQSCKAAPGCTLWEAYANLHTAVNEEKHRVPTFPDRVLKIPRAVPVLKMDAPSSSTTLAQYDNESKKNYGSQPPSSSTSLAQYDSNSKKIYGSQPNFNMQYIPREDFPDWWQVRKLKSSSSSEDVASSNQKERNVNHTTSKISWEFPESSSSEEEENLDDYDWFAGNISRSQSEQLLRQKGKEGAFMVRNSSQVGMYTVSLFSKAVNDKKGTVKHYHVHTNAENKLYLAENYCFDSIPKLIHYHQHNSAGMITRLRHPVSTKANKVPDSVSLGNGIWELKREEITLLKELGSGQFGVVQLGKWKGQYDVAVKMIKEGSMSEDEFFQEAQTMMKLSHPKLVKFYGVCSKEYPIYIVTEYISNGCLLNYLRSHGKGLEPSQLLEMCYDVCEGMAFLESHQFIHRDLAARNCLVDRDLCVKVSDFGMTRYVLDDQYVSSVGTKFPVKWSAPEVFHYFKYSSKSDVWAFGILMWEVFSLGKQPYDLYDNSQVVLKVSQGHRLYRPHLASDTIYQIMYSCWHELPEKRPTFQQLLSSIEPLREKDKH

`O=C1c2ccc(Nc3ccc(F)cc3F)cc2CCc2ccc(OC[C@H](O)CO)cc21` [Skepinone-L] was tested, and the Activity [1] was 100%, the Activity [2] was 88% and the Activity [3] was 104%. For the same compound, the Activity [4] was 100%, the Activity [5] was 101% and the Activity [6] was 87%. For the same compound, the Activity [7] was 91%, the Activity [8] was 100% and the Activity [9] was 99%. It also gave an Activity [10] of 100%, an Activity [11] of 102% and an Activity [12] of 97%. The Activity [13] was 96%, the Activity [14] was 94% and the Activity [15] was 89%. It also gave an Activity [16] of 100% and an Activity [17] of 108%.
